Measurements taken from PMC10059083, “Design, Synthesis, and Biological Evaluation of Novel Hydroxamic Acid-Based Organoselenium Hybrids” (Pharmaceuticals, 2023).
In brackets after ≈: the same amount, converted by molar mass. Like-named read-outs stand apart in the source and are kept apart here.

What was measured:
C. albicans [1] = assay: Agar diffusion assay, C. albicans; format: cell-based, Candida albicans; conditions: for zone of inhibition at 20 µM: Candida albicans, read-out: C. albicans ZID (inhibition zone diameter); for C. albicans IA% (activity index): ratio of inhibition zone of compound to that of positive control (clotrimazole)
C. albicans [2] = assay: MIC by microdilution, C. albicans; format: cell-based; conditions: Candida albicans; microdilution method; read-out: MIC C. albicans
Text: (§1) The encouraging antitumor properties of the OSe compounds motivated us to evaluate their corresponding antimicrobial activities against the C. albicans fungal strain, S. aureus Gram-positive bacteria, and E. coli Gram-negative bacteria. Therefore, we applied the agar diffusion and minimum inhibitory concentration (MIC) methods using clotrimazole antifungal and ampicillin antibacterial drugs as standards.
(§2) The products’ antimicrobial properties were examined according to the previously reported method, via agar well diffusion assay against E. coli, S. aureus, and C. albicans. A microdilution method was also used to record MICs (M), following the previously reported procedure. Experimental details can be found in the Supplementary Materials.
Briefly, a concentration of 1 mM was prepared for each compound by dissolving in DMSO. Paper discs of standard size […] were sterilized in an autoclave and soaked in 9 µL of the test compounds, and placed in the Petri dishes, which in turn contain a nutrient media (agar 9 g, peptone 5 g, and beef extract 3 g) seeded with the dedicated strain. Incubation lasted for 13 h at 36 0C. […]

[3] = DPPH radical scavenging assay; conditions: for antioxidant (scavenging) activity in the DPPH assay: compounds 200 µL, 1 mM in MeOH, DPPH 400 µL, 30 min, absorbance at 517 nm
Procedure: (§3) The antioxidant activities of the OSe compounds were intensively investigated because these are usually the cause of their chemopreventive potency. Their redox activities were evaluated via DPPH and ABTS assays, using ascorbic acid as the standard. We spectrophotometrically measured the antioxidant efficiency of the OSe compounds by their ability to decolorise the DPPH^. and ABTS^. radicals at […] (Figure 2).
(§4) The compounds’ antioxidant properties were assessed by in vitro bioassays using DPPH and ABTS, following the reported method. Details are in the Supplementary Materials.
(§5) Figure 4 Estimation of the OSe compounds’ redox activities via DPPH and ABTS experiments. All tests are mean ± S.D. ABTS experiment: absorbance was followed at 734 nm for OSe compounds (50 µL, 1 mM in MeOH) and ABTS solution (60 µL). DPPH Absorbance was monitored at 517 nm for OSe compounds (200 µL, 1 mM in MeOH) and DPPH (400 µL) after 30 min. […]
1.1.3. The antioxidant activity
1.1.3.1. The DPPH bioassay
The hydrogen atom or electron donation ability of the corresponding compounds was measured by estimating the bleaching of the purple color of a methanolic solution of DPPH [5]. This spectrophotometric assay uses stable DPPH. reagent. The sample was prepared by adding […] of the OSe compounds (1 mM in methanol) to […] DPPH in methanol. After 30 min of incubation in the dark, the absorbance was read against a blank at […]. Ascorbic acid (vitamin C) and ebselen were used as standard antioxidants (positive control). A blank sample was run without DPPH. A negative control sample was run using methanol instead of the sample. The radical scavenging activity was calculated using the following equation:
Inhibition%= (Ablank-Asample)/(Ablank)*100. […]

[4] = ABTS radical scavenging assay; conditions: for antioxidant (scavenging) activity in the ABTS assay: compounds 50 µL, 1 mM in MeOH, ABTS solution 60 µL, absorbance at 734 nm
Procedure: as §3, §4, §5
1.1.3.2. The ABTS bioassay
The antioxidant activity of the investigated compounds was assessed using 2,2’-azino-bis(3-ethylbenzothiazoline-6-sulphonic acid (ABTS) method. The radical cation derived from ABTS was prepared by the reaction of 60 mM ABTS solution with 0.3 M manganese dioxide solution in 0.1M phosphate buffer, pH 7. Then, the mixture was shaken, centrifuged, filtered, and the absorbance (Acontrol ) of […]
the resulting green-blue solution (ABTS radical solution) was measured at wavelength 734 nm. Then, […] of 1 mg/ml test compound in phosphate-buffered methanol was added. The absorbance (Atest) was measured. The reduction in color intensity was expressed as % inhibition. The % inhibition for each […]
compound is calculated from the following equation
Inhibition% = (Acontrol-Asample)/(Acontrol)*100
Ascorbic acid (vitamin C) was used as a standard antioxidant (positive control). A blank sample was run […]
without ABTS and using MeOH/phosphate buffer (1:1) instead of the sample. A negative control sample […]
was run with MeOH/phosphate buffer (1:1) instead of a tested compound.

MCF-7 cells = assay: MTT antiproliferative assay, MCF-7 cells; format: cell-based; conditions: for IC50: Homo sapiens, MCF7, 24 h, read-out: MCF7 IC50; for MCF7 TI (therapeutic index): ratio of IC50 against WI38 cells to IC50 against MCF-7 cells
Text: (§6) Recently, OSe agents have attracted interest due to their potential chemoprotective and antitumor properties. […] Therefore, we estimated the OSe agents’ antiproliferative activities against different cancer cells, i.e., MCF-7 and HepG2 cells and healthy lung fibroblast WI-38 cells, using the MTT assay. The drug doxorubicin was employed as the standard. The corresponding therapeutic indices (TI) are described as the proportion of the WI38 cells IC50 to the IC50 of the cancer cell (e.g., MCF-7 and HepG2) (Table 1).
(§7) The products’ anticancer activity was examined using the MTT assay against breast (MCF-7) carcinoma cells, liver (HepG2), and normal WI-38 cells, following the previously reported method. Experimental details can be found in the Supplementary Materials.
(§8) 1.1. The biological assays
(§9) 1.1.1. The anticancer activity
(§10) The breast adenocarcinoma (MCF-7), Hepatocellular carcinoma (HEPG-2), and normal fibroblast (WI-38) cells were obtained from ATCC via Holding company for biological products and vaccines (VACSERA), Cairo, Egypt. The reagents […] medium, MTT, DMSO, and fetal bovine serum was obtained from Sigma Aldrich. Dulbecco’s modified Eagle’s medium was used as the culture medium for the cells, and the cytotoxicity was evaluated using the reported MTT assay. Doxorubicin was used as the positive reference, and the IC50 values were obtained from the corresponding dose-response curve.
(§11) This colorimetric assay is based on converting the yellow tetrazolium bromide (MTT) to a purple formazan derivative by mitochondrial succinate dehydrogenase in viable cells. Cell lines were cultured in […] medium with 10% fetal bovine serum. Antibiotics added were 100 units/ml penicillin and 100µg/ml streptomycin at 37 C in a 5% Co2 incubator. The cell lines were seeded in a 96-well plate at a density of 1.0x10^4 cells/well. at 37 C for 48 h under 5% Co2. After incubation, the cells were treated with different concentrations of compounds and incubated for 13 […]
(§12) Finally, dimethyl sulfoxide (DMSO) in the volume of 100 µl is added to each well to dissolve the purple formazan formed. The colorimetric assay is measured and recorded at an absorbance of 570 […]
(§13) The percentage of the relative cell viability was calculated as (A570 of treated samples/A570 of the untreated sample) X 100. […]

HepG2 cells = assay: MTT antiproliferative assay, HepG2 cells; format: cell-based; conditions: for IC50: Homo sapiens, HepG2, 24 h, read-out: HepG2 IC50; for HepG2 TI (therapeutic index): ratio of IC50 against WI38 cells to IC50 against HepG2 cells
Text: Recently, OSe agents have attracted interest due to their potential chemoprotective and antitumor properties. We have developed several OSe compounds with promising antioxidant, antimicrobial, and antitumor properties. Therefore, we estimated the OSe agents’ antiproliferative activities against different cancer cells, i.e., MCF-7 and HepG2 cells and healthy lung fibroblast WI-38 cells, using the MTT assay. The drug doxorubicin was employed as the standard. The corresponding therapeutic indices (TI) are described as the proportion of the WI38 cells IC50 to the IC50 of the cancer cell (e.g., MCF-7 and HepG2) (Table 1).
as §7, §8, §9, §10, §11
Finally, dimethyl sulfoxide (DMSO) in the volume of 100 µl is added to each well to dissolve the purple formazan formed. The colorimetric assay is measured and recorded at an absorbance of 570 nm using a plate reader (EXL 800, USA). The percentage of the relative cell viability was calculated as (A570 of treated samples/A570 of the untreated sample) X 100. […]

WI-38 cells = assay: MTT cytotoxicity assay, normal lung fibroblast WI-38 cells; format: cell-based; conditions: Homo sapiens, WI-38, 24 h, read-out: WI38 IC50
Text: as §6, §7, §8, §9, §10, §11, §12, §13

S. aureus [5] = assay: Agar diffusion assay, S. aureus; format: cell-based, Staphylococcus aureus; parameters: concentration or dose not given beside the values; conditions: ratio of inhibition zone of compound to that of positive control (ampicillin)
Text: as §1
as §2, with “Materials. […]” for “Materials.”
1.1.2. The antimicrobial activity
The antimicrobial activities of the OSe compounds were evaluate d against C. albicans yeast as well as E. coli gram-negative and S. aureus gram-positive bacteria employing the agar well diffusion assay.
Briefly, a concentration of 1 mM was prepared for each compound by dissolving in DMSO. Paper discs of standard size […] were sterilized in an autoclave and soaked in 9 µL of the test compounds, and placed in the Petri dishes, which in turn contain a nutrient media (agar 9 g, peptone 5 g, and beef extract 3 g) seeded with the dedicated strain. Incubation lasted for 13 h at 36 0C.
Experiments were replicated three times and the antifungal clotrimazole and antibiotic ampicillin […]

S. aureus [6] = assay: Agar diffusion assay, S. aureus; format: cell-based; conditions: Staphylococcus aureus; 6-mm disks soaked with 20 μM of the OSe agents; read-out: S. aureus ZID (inhibition zone diameter)

| Compound | zone of inhibition at 20 µM (C. albicans [1]; 6-mm disks soaked with 20 μM of the OSe agents) [mm] | C. albicans IA% (activity index) (C. albicans [1]) [%] | MIC (C. albicans [2]) [µM] | antioxidant (scavenging) activity in the DPPH assay [3] [%] | IC50 ([3]; concentration causing 50% decrease in absorbance, DPPH assay) [µM] | antioxidant (scavenging) activity in the ABTS assay [4] [%] | IC50 ([4]; concentration causing 50% decrease in absorbance, ABTS assay) [µM] | IC50 (MCF-7 cells) [µM] | MCF7 TI (therapeutic index) (MCF-7 cells) | IC50 (HepG2 cells) [µM] | HepG2 TI (therapeutic index) (HepG2 cells) | IC50 (WI-38 cells) [µM] | S. aureus IA% (activity index) (S. aureus [5]) [%] | zone of inhibition at 20 µM (C. albicans [1]) [mm] | zone of inhibition at 20 µM (S. aureus [6]) [mm] |
| --- | --- | --- | --- | --- | --- | --- | --- | --- | --- | --- | --- | --- | --- | --- | --- |
| Clc1ccccc1C(c1ccccc1)(c1ccccc1)n1ccnc1 [Clotrimazole, clotrimazole, reference compound] | 24 | 100 | 2 (≈ 0.69 µg/mL) |  |  |  |  |  |  |  |  |  |  |  |  |
| O=C1O[C@H]([C@@H](O)CO)C(O)=C1O [Vitamin C, ascorbic acid, reference compound] |  |  |  | 94.5 | 19.18 ± 0.13 | 88.4 | 28.16 ± 0.19 |  |  |  |  |  |  |  |  |
| O=CNc1ccc([Se]CC(=O)NOCc2ccccc2)cc1 [Compound 10, N-(benzyloxy)-2-((4-formamidophenyl)selanyl)acetamide] |  | 29.2 |  | 64.2 |  | 64.7 |  | 49.3 ± 3.1 | 0.8 | 83.4 ± 4.2 | 0.5 | 37.4 ± 2.6 | 28.6 | 7 | 6 |
| O=C(C[Se]c1ccc(N2C(=O)c3ccccc3C2=O)cc1)NOCc1ccccc1 [Compound 13, N-(benzyloxy)-2-((4-(1,3-dioxoisoindolin-2-yl)phenyl)selanyl)acetamide] |  | 8.3 |  | 89.4 |  | 87.0 |  | 91.6 ± 4.6 | 0.8 | > 100 | 0.6 | 61.6 ± 3.8 |  | 2 |  |
